Where “and” joins values, the source holds several entries; their conditions need not be identical. Equal values may be shown once.
What was measured:
[1] = tested on: patients with PH-HFpEF; assay: Serum BNP or NT-proBNP levels, I.V. to oral levosimendan transition study; type: in vivo, human
Protocol: (§1) Methods: Patients with PH-HFpEF who were in the open label extension study of the HELP Trial for more than 18 months volunteered to enroll in this transition protocol. Patients were initiated with 1 mg/day of oral levosimendan 5-7 days after the last IV levosimendan infusion. The oral dose was increased every 2 weeks by 1 mg/day to a maximum of 4 mg/day over an 8 week period. The highest daily dose was determined by the investigator based on clinical assessments of symptoms and side effects. The primary safety endpoints were change in resting heart rate and blood pressure from baseline to final study visit and all other adverse events. Secondary efficacy endpoints included change in six-minute walk distance (6MWD), serum brain natriuretic peptide (BNP) or NT-proBNP levels, and quality of life as assessed by Kansas City Cardiomyopathy Questionnaire clinical summary score (KCCQ-CS) and overall summary score (KCCQ-OS) from baseline to final study visit. All comparisons were the baseline and at week 6-8 measurements at the highest daily dose of levosimendan.
• Change in six-minute walk distance (6MWD) from baseline to final study visit • Change in serum brain natriuretic peptide (BNP) or NT-proBNP levels from baseline to final study visit • Change in quality of life as assessed by Kansas City Cardiomyopathy Questionnaire clinical summary score (KCCQ-CS) and overall summary score (KCCQ-OS) from baseline to final study visit
All comparisons were the baseline and at week 6-8 measurements at the highest daily dose of levosimendan.

[2] = tested on: phosphodiesterase-3 (PDE3); conditions: in vitro; cited from earlier work
[3] = tested on: patients with PH-HFpEF; assay: Resting heart rate and systolic arterial blood pressure, I.V. to oral levosimendan transition study; type: in vivo, human
Protocol: (§2) Once that dose is determined, the study is identical with respect to the protocol. Since the I.V. formulation is weight based, and bypasses issues of bioavailability that may be affected by drug absorption, a dose escalation strategy is being adopted, guided by the individual patient response and any adverse events that may occur. Thus, the measurement of a six-minute walk test and patient questionnaire before and after the transition was to ensure that the patient continues to benefit. In addition, the monitoring of the patients' blood pressure and heart rate each day was to ensure that the oral dose remains safe.
(§3) The following considerations justified amending the TNX-LVO-05 study protocol: • 1. The amended TNX-LVO-05 protocol included the same patients enrolled in the original study. This was not a new study of the patients currently enrolled. This was open label, with no blinding of patients or physicians, and no control group. • 2. The scope and purpose of the study was unchanged, with the exception that it offered the further extension of treatment allowed by the transition to oral therapy (See item #4). • 3. The amendment clearly delineated a stepwise and thoughtful titration of patients from their intravenous to oral levosimendan to ensure the safe and effective transition of their levosimendan regimen. • a. Patients were started on 1 mg daily, representing a dose generally less than half their total weekly weight-based dose regimen. • b. Patients were titrated based on tolerance to the daily levosimendan paying attention to their symptoms of PH-HFpEF, and special attention to specific adverse events of interest, heart rate and blood pressure. A daily diary captured patient vitals and symptoms to aid their physician in titrating patients at two-week intervals. • c. Patient response also was evaluated by clinical measures to provide the physician with additional information on the patient's response. • d. While most patients were expected to receive 2-3 mg daily at the conclusion of the transition study, the dose escalation strategy was included to allow all patients to realize the same benefit as they did from the I.V. formulation. • e. To document the sustained efficacy of the oral formulation in these patients, patients had to undergo a six-minute walk test and patient questionnaire prior to and at the end of the transition study. • 4. The transition to oral levosimendan allowed for extension of the study from its initial two years to an additional three years. This offers these PH-HFpEF patients, with no other treatments available, to continue on a drug that they have responded to. • 5. The amendment required patients to sign a revised informed consent to ensure patients are completely informed concerning the transition amendment. Patients that preferred to continue with their weekly 24-hour I.V. regimen were allowed to continue through the initial two-year period of the study and then will be withdrawn.
as §1, with “All comparisons were the baseline and at week 6-8 measurements at the highest daily dose of levosimendan.” left out

[4] = tested on: patients with PH-HFpEF; assay: Six-minute walk test (6MWT/6MWD), I.V. to oral levosimendan transition study (TNX-LVO-05 open label extension of HELP); type: in vivo, human
Text: The initial HELP Study is described in PCT International Application Publication No. WO 2021/126884 and Burkhoff, et al. (2021) “Levosimendan improves hemodynamics and exercise tolerance in PH-HFpEF: results of the randomized placebo-controlled HELP trial,” the entire contents of each of which are incorporated by reference. […] Among the goals of the extension study was to determine the dose of oral levosimendan that could maintain the efficacy of the weekly I.V. infusions of levosimendan.
as §2, §3
Methods: Patients with PH-HFpEF who were in the open label extension study of the HELP Trial for more than 18 months volunteered to enroll in this transition protocol. Patients were initiated with 1 mg/day of oral levosimendan 5-7 days after the last IV levosimendan infusion. The oral dose was increased every 2 weeks by 1 mg/day to a maximum of 4 mg/day over an 8 week period. The highest daily dose was determined by the investigator based on clinical assessments of symptoms and side effects. […]

[5] = oral levosimendan compared to weekly I.V. infusion
[6] = baseline to final study visit (week 6-8), oral levosimendan 3-4 mg/day
[7] = individual patients transitioned from weekly I.V. to oral levosimendan

## C[C@@H]1CC(=O)NN=C1c1ccc(NN=C(C#N)C#N)cc1 [levosimendan]
[1]; n=7, baseline to final study visit, oral levosimendan
  change in NT-proBNP: −239.4 (SD 548.1) pg/dl
[1]; n=8, baseline to final study visit, oral levosimendan
  change in BNP: −133.3 (SD 136.6) pg/dl
[1]; [5]
  improvement in BNP/NT-ProBNP biomarker measurements: 22%
[2]
  PDE3/PDE4 inhibition ratio: 10,000
[3]; [6]
  mean change in resting heart rate: 4.9 (SD±7.5) beats/min
  mean change in systolic arterial blood pressure: 4.1 (SD±12.6) mm Hg
[3]; n=18
  Heart Rate Change from Baseline to Week 6 Oral, Mean: 6.9
  Heart Rate Change from Baseline to Week 6 Oral, Median: 5.5
  Heart Rate Change from Baseline to Week 6 Oral, Minimum: −9
  SBP Change from baseline to Week 6 - Oral, Maximum: 34
  SBP Change from baseline to Week 6 - Oral, Mean: 4.1
  SBP Change from baseline to Week 6 - Oral, Median: 1.5
  SBP Change from baseline to Week 6 - Oral, Minimum: −15
[4]; [7]
  6MW Change (BL vs Week 6 only): −137 and 78 and −27 and 118 and −10 and −4 and 5 and −9 and −8 and 9 and −17 and 40 and 30 (2×) and 15 and −1
  6MW Change (Baseline vs Week 6/8): −15 and 78 and −27 and −10 and −31 and −4 and 24 and −23 and −112 and 9 and −17 and 30 (3×) and −1
[4]; n=16
  6MWD Change from baseline to Week 6 - Oral, Maximum: 118
  6MWD Change from baseline to Week 6 - Oral, Median: 2.0
  6MWD Change from baseline to Week 6 - Oral, Minimum: −137
[4]; n=16, oral levosimendan
  6MWD Week 6 - Oral, Maximum: 550 m
  6MWD Week 6 - Oral, Mean: 302.0
  6MWD Week 6 - Oral, Median: 292.0
  6MWD Week 6 - Oral, Minimum: 91
[4]; n=17, baseline to final study visit, oral levosimendan
  mean change in 6MWD: 13.1 (SD±39.5) meters
[4]; [5]
  improvement in six minute walk distance: 32%

— patent publication US20250064799A1, “ORAL FORMULATIONS OF LEVOSIMENDAN FOR TREATING PULMONARY HYPERTENSION WITH HEART FAILURE WITH PRESERVED EJECTION FRACTION” (Tenax Therapeutics, Inc., priority 2021, published 2025)
